These results are taken from patent US20090030037A1, “Sustained Release Formulation and Dosing Schedules of Leukotriene Synthesis Inhibitor for Human Therapy” (deCODE Genetics ehf., priority 2005, published 2009).

Data set [1] is described as follows: Study DG-031-204: creatine kinase. It counts as in vivo, human. The note with it: 500 mg BID or TID. The protocol:
(§1) An additional single site, open label study was carried out to obtain biomarker and safety data on additional DG-031 doses (i.e., 1000 mg and 1500 mg). This study examined the safety, tolerability and dose-related effects of DG-031 on inflammatory biomarkers including: LTB4, hsCRP, and MPO. A total of 119 patients with a prior history of CAD and MI were randomized to receive either 1000 mg DG-031 (500 mg BID) or 1500 mg DG-031 (500 mg TID) daily for 4-6 weeks. Treatment with DG-031 in addition to the subject's standard care, medication, and treatment, was prescribed by the patient's cardiologist. A majority of the subjects received statin therapy before, during and after the study. Follow-up assessments were performed 2 weeks after the end of study drug administration.
Liver function tests (AST, ALT, GGT) were assessed weekly during study drug administration and two weeks after dosing. […] Serum creatinine (Cr) was measured weekly during study drug administration and two weeks after dosing. In both the 500 mg BID and 500 mg TID treatment groups, mean serum Cr concentrations increased 4-5% relative to baseline levels. At the 2-week follow up visit, mean serum Cr returned to baseline in the cohort treated for 4 weeks, but remained elevated in the group treated for 6 weeks. Creatine kinase (CK) measurements were obtained weekly during study drug administration and two weeks after dosing.

The nature of data set [2]: Population pharmacokinetic analysis (studies DG-031-201, DG-031-203). It counts as in vivo, human. The protocol: Preliminary population pharmacokinetic (PK) analysis was also carried out based on clinical studies DG-031-201 and DG-031-203. Based on visual inspection of the individual and mean time course of DG-031 concentrations, a simple one compartmental disposition model following first order oral absorption, and an absorption lag time was fit to the data. A mixed effects modeling approach was used. The pharmacokinetic model parameters (fixed effects) included oral clearance (CL), distribution volume (V), oral absorption (ka), and absorption lag (tiag). The statistical model includes inter-individual random effects as well as a residual error term. All inter-subject random effect parameters (it's) and residual error terms (&) are assumed to be normally distributed with mean of zero and variance o2 and a2, respectively. Random effects on all pharmacokinetic model parameters were explored. Maximum likelihood estimates of the structural (0's) and statistical model parameters were estimated using an approximation to the mixed effect log-likelihood as implemented in the NONMEM program (NONMEM Version Vi).
The influence of patient characteristics (covariates) on pharmacokinetic parameters was explored. Age, gender, body weight, and CrCL (creatinine clearance) were included in the model as covariates if warranted.
Model selection will be done on the basis of the log-likelihood criterion (p<0.05) and visual inspection of goodness-of-fit plots. The difference in −2 times the log of the likelihood (−2LL) between a full and reduced model is asymptotically χ^2 distributed with degrees of freedom equal to the difference in number of parameters between the two models. For instance, a decrease of more than 3.84 in −2LL is considered significant at the p<0.05 level for 1 additional parameter. Standard errors of the parameter estimates are approximated using the asymptotic covariance matrix.

Data set [3] deals with MPO. The experiment in a line: Study DG-031-204: MPO in ionomycin-stimulated whole blood. It is filed as in vivo, human. The note with it: for Stimulated MPO from whole blood (% change from baseline, whole blood, WBC corrected, 60 minute), mean response: after 4 weeks of DG-031 administration. The protocol:
as §1
The biomarkers were analyzed as described in Example 1. Statistical analysis of the data was carried out using a one-sample t-test on change from baseline with a two-sided nominal significance level of 0.050. Biomarker concentrations were log-transformed and a simple last observation carried forward (LOCF) scheme was used to impute missing observations.
Plasma MPO concentration was measured weekly. MPO measurements in ionomycin-stimulated whole blood were also measured in a subset of patients at 4 weeks.

Data set [4] concerns MPO release, human whole blood. Kind of data set: In vitro MPO release in human whole blood after ionomycin stimulation. It is filed as cell-based. The protocol:
Neutrophils and other cells in human whole blood respond in vitro to activation by a calcium ionophore (e.g., ionomycin), with an increase in LTB4 production and with coupled release of MPO stimulated in part by LTB4 production in the assay. The effect of DG-031 on the capacity for production of LTB4 in vitro after ionomycin stimulation was evaluated at concentrations ranging from 0.1 μM up to 240 μM.
Blood samples collected from the clinical study described in Example 2 were evaluated assuming that the ex vivo response profile in clinical samples parallels the in vitro response over the entire concentration range, 250 mg TID dosing which maintains concentrations above 2-3 μg/ml (˜7 μM) should maintain a 30% or greater reduction of capacity for LTB4 production at all times. Peak concentrations of DG-031 with 250 mg TID dosing were about 10 μg/ml (28 μM) and should be associated with about 65% reduction of capacity for LTB4 production. The typical patient's pharmacodynamic response was expected to fluctuate between 30% and 65% reduction of capacity for LTB4 production over the course of a dosing interval.

Several values for one entry are separate records, joined by “and”; a condition that tells them apart may be missing. Equal entries are not always repeated.

As for `O=C(O)[C@@H](c1ccc(OCc2ccc3ccccc3n2)cc1)C1CCCC1` [DG-031, (R)-(+)-alpha-cyclopentyl-4-(2-quinolinylmethoxy)-Benzeneacetic acid], the “Mean CK concentrations” value in data set [1] is listed as “No adverse trends”. Also, in data set [2] (250 mg to 1500 mg administered daily), the PK linearity result is reported as “linear PK”. Moreover, in data set [2] (90 kg patient), the “oral CL” value was 5.86 L/h. Moreover, in data set [2] (BID dosing), the Accumulation is 12%. In addition, the “V (distribution volume)” value in data set [2] (human, plasma, oral) amounted to 32 L. Besides, the “V, inter-subject CV %” value in data set [2] (human, plasma, oral) worked out at 44%. Moreover, the half-life in data set [2] (human, plasma, oral, MI patients, estimated, read-out: Terminal elimination half-life (converted)) is roughly 4 h. Besides, in data set [2] (in vivo), the “Effect of body weight on CL” value is “minor effects”. Besides, the “Stimulated whole blood MPO concentrations” value in data set [3] (500 mg BID or TID, 4 weeks) is “decreased”. In addition, the “Stimulated MPO from whole blood (% change from baseline, whole blood, WBC corrected, 60 minute), mean response” value is given as −19% in data set [3] (1000 mg (500 mg BID)) and −29% in data set [3] (1500 mg (500 mg TID)). Besides, the “Concentration at which MPO release is maximally inhibited in vitro” value in data set [4] was “about 6 μM and ~2 μg/ml”.
